Patent US10981917B2, “Heterocyclic compound, its preparation method, and pharmaceutical composition comprising the same” (Daewoong Pharmaceutical Co., Ltd., priority 2017, dated 2021)
pIC50: −log10 of the molar value.

Target: PRS (prolyl-tRNA synthetase) protein, PRS portion of EPRS (Homo sapiens (Human), UniProt P07814)
Test: PRS enzyme activity inhibition experiment ([3H]proline, liquid scintillation)
Type: biochemical
Settings: purified PRS protein, 37° C. for 5 to 10 minutes
Procedure, shortened: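 Values are % inhibition or IC50 ranges (A ≤100 nM, B 100–500 nM, C ≥500 nM) from [3H]proline incorporation measured by liquid scintillation. PRS portion of human EPRS, reacted 5–10 min at 37 °C in pH 7.4 phosphate buffer containing 5 mM ATP and tRNA, compound at 1 μM.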

PRS (prolyl-tRNA synthetase) protein, PRS portion of EPRS, sequence (P07814 1007-1512): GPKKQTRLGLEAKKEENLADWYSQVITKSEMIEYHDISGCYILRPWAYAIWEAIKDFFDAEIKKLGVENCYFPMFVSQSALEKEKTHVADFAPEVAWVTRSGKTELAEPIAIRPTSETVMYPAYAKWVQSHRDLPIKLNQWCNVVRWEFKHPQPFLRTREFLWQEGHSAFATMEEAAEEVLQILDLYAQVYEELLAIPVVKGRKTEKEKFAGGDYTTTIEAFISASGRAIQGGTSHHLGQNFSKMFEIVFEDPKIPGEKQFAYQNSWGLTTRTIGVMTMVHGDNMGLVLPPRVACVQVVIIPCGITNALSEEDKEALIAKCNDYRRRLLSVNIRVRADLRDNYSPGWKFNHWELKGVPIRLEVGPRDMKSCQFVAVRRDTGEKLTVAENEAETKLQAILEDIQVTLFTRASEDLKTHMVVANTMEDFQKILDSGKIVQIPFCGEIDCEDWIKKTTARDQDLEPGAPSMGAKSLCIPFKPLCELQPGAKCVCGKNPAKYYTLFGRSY

Structure (SMILES): O[C@H]1CCCN[C@@H]1CCCn1cnc2nc(Cl)ccc21 [Example 117, (2R,3S)-2-(3-(5-chloro-1H-imidazo[4,5-b]pyridin-1-yl)propyl)piperidin-3-ol]
- pIC50: 6.30 to 7.00

Structure (SMILES): O[C@H]1CCCN[C@@H]1CCCn1cnc2ccc(Cl)nc21 [Example 118, (2R,3S)-2-(3-(5-chloro-3H-imidazo[4,5-b]pyridin-3-yl)propyl)piperidin-3-ol]
- pIC50: ≤ 6.30

Structure (SMILES): O[C@H]1CCCN[C@@H]1CCCn1cnc2nc(Br)ccc21 [Example 119, (2R,3S)-2-(3-(5-bromo-1H-imidazo[4,5-b]pyridin-1-yl)propyl)piperidin-3-ol]
- pIC50: ≤ 6.30

Structure (SMILES): O[C@H]1CCCN[C@@H]1CCCn1cnc2ncc(Br)cc21 [Example 120, (2R,3S)-2-(3-(6-bromo-1H-imidazo[4,5-b]pyridin-1-yl)propyl)piperidin-3-ol]
- pIC50: ≤ 6.30

Structure (SMILES): Cc1ccc2c(ncn2CCC[C@H]2NCCC[C@@H]2O)n1 [Example 121, (2R,3S)-2-(3-(5-methyl-1H-imidazo[4,5-b]pyridin-1-yl)propyl)piperidin-3-ol]
- pIC50: 6.30 to 7.00

Structure (SMILES): O[C@H]1CCCN[C@@H]1CCCn1cnc2cnc(Cl)cc21 [Example 122, (2R,3S)-2-(3-(6-chloro-1H-imidazo[4,5-c]pyridin-1-yl)propyl)piperidin-3-ol]
- pIC50: 6.30 to 7.00

Structure (SMILES): O[C@H]1CCCN[C@@H]1CCCn1cnc2cc(Cl)ncc21 [Example 123, (2R,3S)-2-(3-(6-chloro-3H-imidazo[4,5-c]pyridin-3-yl)propyl)piperidin-3-ol]
- pIC50: ≤ 6.30

Structure (SMILES): O[C@H]1CCCN[C@@H]1CCCn1cnc2cnc(Br)cc21 [Example 124, (2R,3S)-2-(3-(6-bromo-1H-imidazo[4,5-c]pyridin-1-yl)propyl)piperidin-3-ol]
- pIC50: ≤ 6.30

Structure (SMILES): O[C@H]1CCCN[C@@H]1CCCn1cnc2cc(Br)ncc21 [Example 125, (2R,3S)-2-(3-(6-bromo-3H-imidazo[4,5-c]pyridin-3-yl)propyl)piperidin-3-ol]
- pIC50: ≤ 6.30

Structure (SMILES): O[C@H]1CCCN[C@@H]1CCCn1cnc2nccc(Cl)c21 [Example 126, (2R,3S)-2-(3-(7-chloro-1H-imidazo[4,5-b]pyridin-1-yl)propyl)piperidin-3-ol]
- pIC50: 6.30 to 7.00

Structure (SMILES): O[C@H]1CCCN[C@@H]1CCCn1cnc2nc(Cl)c(Cl)cc21 [Example 127, (2R,3S)-2-(3-(5,6-dichloro-1H-imidazo[4,5-b]pyridin-1-yl)propyl)piperidin-3-ol]
- pIC50: 6.30 to 7.00

Structure (SMILES): O[C@H]1CCCN[C@@H]1CCCn1cnc2cncc(Br)c21 [Example 128, (2R,3S)-2-(3-(7-bromo-1H-imidazo[4,5-c]pyridin-1-yl)propyl)piperidin-3-ol]
- pIC50: ≤ 6.30

Structure (SMILES): O[C@H]1CCCN[C@@H]1CCCn1cnc2ccc(C(F)(F)F)nc21 [Example 129, (2R,3S)-2-(3-(5-(trifluoromethyl)-3H-imidazo[4,5-b]pyridin-3-yl)propyl)piperidin-3-ol]
- pIC50: ≤ 6.30

Structure (SMILES): O[C@H]1CCCN[C@@H]1CCCn1cnc2c(Cl)c(Cl)cnc21 [Example 130, (2R,3S)-2-(3-(6,7-dichloro-3H-imidazo[4,5-b]pyridin-3-yl)propyl)piperidin-3-ol]
- pIC50: 6.30 to 7.00

Structure (SMILES): Cc1c(Cl)cnc2c1ncn2CCC[C@H]1NCCC[C@@H]1O [Example 131, (2R,3S)-2-(3-(6-chloro-7-methyl-3H-imidazo[4,5-b]pyridin-3-yl)propyl)piperidin-3-ol]
- pIC50: 6.30 to 7.00

Structure (SMILES): Cc1c(Br)cnc2c1ncn2CCC[C@H]1NCCC[C@@H]1O [Example 132, (2R,3S)-2-(3-(6-bromo-7-methyl-3H-imidazo[4,5-b]pyridin-3-yl)propyl)piperidin-3-ol]
- pIC50: 6.30 to 7.00

Structure (SMILES): O[C@H]1CCCN[C@@H]1CCCn1cnc2c(Cl)c(Br)cnc21 [Example 133, (2R,3S)-2-(3-(6-bromo-7-chloro-3H-imidazo[4,5-b]pyridin-3-yl)propyl)piperidin-3-ol]
- pIC50: ≤ 6.30

Structure (SMILES): O[C@H]1CCCN[C@@H]1CCCn1cnc2c(Cl)c(-c3cccc(Cl)c3)cnc21 [Example 134, (2R,3S)-2-(3-(7-chloro-6-(3-chlorophenyl)-3H-imidazo[4,5-b]pyridin-3-yl)propyl)piperidin-3-ol]
- pIC50: ≤ 6.30

Structure (SMILES): O[C@H]1CCCN[C@@H]1CCCn1cnc2nc(Cl)ncc21 [Example 135, (2R,3S)-2-(3-(2-chloro-7H-purin-7-yl)propyl)piperidin-3-ol]
- pIC50: ≤ 6.30

Structure (SMILES): O[C@H]1CCCN[C@@H]1CCCn1cnc2cnc(Cl)nc21 [Example 136, (2R,3S)-2-(3-(2-chloro-9H-purin-9-yl)propyl)piperidin-3-ol]
- pIC50: ≤ 6.30

Structure (SMILES): CN(C)c1ncnc2c1ncn2CCC[C@H]1NCCC[C@@H]1O [Example 137, (2R,3S)-2-(3-(6-(dimethylamino)-9H-purin-9-yl)propyl)piperidin-3-ol]
- pIC50: ≤ 6.30

Structure (SMILES): CCN(CC)c1ncnc2c1ncn2CCC[C@H]1NCCC[C@@H]1O [Example 138, (2R,3S)-2-(3-(6-(diethylamino)-9H-purin-9-yl)propyl)piperidin-3-ol]
- pIC50: ≤ 6.30

Structure (SMILES): CCN(C)c1ncnc2c1ncn2CCC[C@H]1NCCC[C@@H]1O [Example 139, (2R,3S)-2-(3-(6-(ethyl(methyl)amino)-9H-purin-9-yl)propyl)piperidin-3-ol]
- pIC50: ≤ 6.30

Structure (SMILES): O[C@H]1CCCN[C@@H]1CCCn1cnc2c(N3CCOCC3)ncnc21 [Example 140, (2R,3S)-2-(3-(6-morpholino-9H-purin-9-yl)propyl)piperidin-3-ol]
- pIC50: ≤ 6.30

Structure (SMILES): O[C@H]1CCCN[C@@H]1CCCn1cnc2c(N3CCCCC3)ncnc21 [Example 141, (2R,3S)-2-(3-(6-(piperidin-1-yl)-9H-purin-9-yl)propyl)piperidin-3-ol]
- pIC50: ≤ 6.30

Structure (SMILES): O[C@H]1CCCN[C@@H]1CCCn1cnc2c(N3CCCC3)ncnc21 [Example 142, (2R,3S)-2-(3-(6-(pyrrolidin-1-yl)-9H-purin-9-yl)propyl)piperidin-3-ol]
- pIC50: ≤ 6.30

Structure (SMILES): Oc1nc2ccccc2n1CCC[C@H]1NCCC[C@@H]1O [Example 143, 1-(3-((2R,3S)-3-hydroxypiperidin-2-yl)propyl)-1H-benzo[d]imidazol-2-ol]
- pIC50: ≤ 6.30

Structure (SMILES): Oc1nc2cc(Cl)c(Cl)cc2n1CCC[C@H]1NCCC[C@@H]1O [Example 144, 5,6-dichloro-1-(3-((2R,3S)-3-hydroxypiperidin-2-yl)propyl)-1H-benzo[d]imidazol-2-ol]
- pIC50: ≤ 6.30

Structure (SMILES): OCc1nc2ccccc2n1CCC[C@H]1NCCC[C@@H]1O [Example 145, (2R,3S)-2-(3-(2-(hydroxymethyl)-1H-benzo[d]imidazol-1-yl)propyl)piperidin-3-ol]
- pIC50: ≤ 6.30

Structure (SMILES): Cc1ccc2c(nc(CO)n2CCC[C@H]2NCCC[C@@H]2O)c1C [Example 146, (2R,3S)-2-(3-(2-(hydroxymethyl)-4,5-dimethyl-1H-benzo[d]imidazol-1-yl)propyl)piperidin-3-ol]
- pIC50: ≤ 6.30

Structure (SMILES): OCc1nc2cc(Cl)c(Cl)cc2n1CCC[C@H]1NCCC[C@@H]1O [Example 147, (2R,3S)-2-(3-(5,6-dichloro-2-(hydroxymethyl)-1H-benzo[d]imidazol-1-yl)propyl)piperidin-3-ol]
- pIC50: ≤ 6.30

Structure (SMILES): Nc1nc2cc(Cl)c(Cl)cc2n1CCC[C@H]1NCCC[C@@H]1O [Example 148, (2R,3S)-2-(3-(2-amino-5,6-dichloro-1H-benzo[d]imidazol-1-yl)propyl)piperidin-3-ol]
- pIC50: 6.30 to 7.00

Structure (SMILES): COC(=O)c1cn(CCC[C@H]2NCCC[C@@H]2O)c2c(Br)cccc12 [Example 149, methyl 7-bromo-1-(3-((2R,3S)-3-hydroxypiperidin-2-yl)propyl)-1H-indole-3-carboxylate]
- pIC50: 6.30 to 7.00

Structure (SMILES): COC(=O)c1cn(CCC[C@H]2NCCC[C@@H]2O)c2ccc(Br)cc12 [Example 150, methyl 5-bromo-1-(3-((2R,3S)-3-hydroxypiperidin-2-yl)propyl)-1H-indole-3-carboxylate]
- pIC50: ≤ 6.30

Structure (SMILES): COC(=O)c1cn(CCC[C@H]2NCCC[C@@H]2O)c2cc(Br)ccc12 [Example 151, methyl 6-bromo-1-(3-((2R,3S)-3-hydroxypiperidin-2-yl)propyl)-1H-indole-3-carboxylate]
- pIC50: 6.30 to 7.00

Structure (SMILES): COC(=O)c1cn(CCC[C@H]2NCCC[C@@H]2O)c2cccc(Cl)c12 [Example 152, methyl 4-chloro-1-(3-((2R,3S)-3-hydroxypiperidin-2-yl)propyl)-1H-indole-3-carboxylate]
- pIC50: ≤ 6.30

Structure (SMILES): COC(=O)c1cn(CCC[C@H]2NCCC[C@@H]2O)c2cc(Cl)ccc12 [Example 153, methyl 6-chloro-1-(3-((2R,3S)-3-hydroxypiperidin-2-yl)propyl)-1H-indole-3-carboxylate]
- pIC50: 6.30 to 7.00

Structure (SMILES): COC(=O)c1cn(CCC[C@H]2NCCC[C@@H]2O)c2c(Cl)cccc12 [Example 154, methyl 7-chloro-1-(3-((2R,3S)-3-hydroxypiperidin-2-yl)propyl)-1H-indole-3-carboxylate]
- pIC50: 6.30 to 7.00

Structure (SMILES): O[C@H]1CCCN[C@@H]1CCCn1nc(C2CC2)c2cc(Cl)ccc21 [Example 155, (2R,3S)-2-(3-(5-chloro-3-cyclopropyl-1H-indazol-1-yl)propyl)piperidin-3-ol]
- pIC50: ≤ 6.30

Structure (SMILES): O[C@H]1CCCN[C@@H]1CCCn1nc(C(F)(F)F)c2cc(Cl)ccc21 [Example 156, (2R,3S)-2-(3-(5-chloro-3-(trifluoromethyl)-1H-indazol-1-yl)propyl)piperidin-3-ol]
- pIC50: ≤ 6.30

Structure (SMILES): O[C@H]1CCCN[C@@H]1CCCn1nc(-c2cnn(C(F)F)c2)c2cc(Cl)ccc21 [Example 157, (2R,3S)-2-(3-(5-chloro-3-(1-(difluoromethyl)-1H-pyrazol-4-yl)-1H-indazol-1-yl)propyl)piperidin-3-ol]
- pIC50: ≤ 6.30

Structure (SMILES): O[C@H]1CCCN[C@@H]1CCCn1nc(-c2cnn(C(F)F)c2)c2ccc(Cl)cc21 [Example 158, (2R,3S)-2-(3-(6-chloro-3-(1-(difluoromethyl)-1H-pyrazol-4-yl)-1H-indazol-1-yl)propyl)piperidin-3-ol]
- pIC50: ≤ 6.30

Structure (SMILES): Cn1c(=O)n(CCC[C@H]2NCCC[C@@H]2O)c2ccccc21 [Example 159, 1-(3-((2R,3S)-3-hydroxypiperidin-2-yl)propyl)-3-methyl-1H-benzo[d]imidazol-2(3H)-one]
- pIC50: ≤ 6.30
